Earlier results as cited in patent US9790225B2, “4-amino-3-phenylamino-6-phenylpyrazolo[3,4-d]pyrimidine derivatives, their manufacture and their use as antiviral active substances” (Scandion Oncology A/S, priority 2011, dated 2017).

Assays:
[1] = in vivo; cited from earlier work
[2] = in vivo; cited from earlier work; remark: listed apart in the source
[3] = test system: 48 rhinovirus types, coxsackie virus A21, enterovirus 70, echovirus 11; conditions: Pattick et al. 1999; cited from earlier work
[4] = in vivo; cited from earlier work; remark: listed apart in the source
[5] = cited from earlier work

Cc1cc(CCCCCOc2c(Cl)cc(C3=NCCO3)cc2Cl)on1 [WIN 54954]
Metabolisation and excretion [1]: fast metabolisation and excretion | Side effects [2]: skin rash

CCOC(=O)/C=C/[C@H](C[C@@H]1CCNC1=O)NC(=O)[C@@H](CC(=O)[C@@H](NC(=O)c1cc(C)on1)C(C)C)Cc1ccc(F)cc1 [AG 7088]
Active concentration range in cell culture [3]: nanomolar concentration range

CCC(=O)C(CCCCCCOc1ccc(OC)cc1Cl)C(=O)CC [arildone]
Bioavailability [4]: low bioavailability | Solubility [5]: Poor solubility
